Assay results as given in patent US6399643B1, “Spiroimidazolidine derivatives, their preparation, their use and pharmaceutical preparations formed therefrom” (Aventis Pharma Deutschland GmbH, priority 1999, dated 2002).
Structures can show the parent of a compound that is named as a salt.

Target: T1, interaction between VCAM-1 and VLA-4 (Homo sapiens, UniProt P05556+P13612)
T1 construct: supplied in their natural form as surface molecules on human U937 cells; host or cells: human U937 cells (VLA-4, endogenous); the partner hVCAM-1(1-3)-IgG was made in house in transfected COS cells (ATCC CRL1651) and used as culture supernatant
Assay: U937/VCAM-1 cell adhesion test (adhesion of U937 cells to hVCAM-1(1-3)-IgG)
Type: cell-based
Details: inhibition of adhesion of human U937 cells (ATCC CRL 1593) to hVCAM-1(1-3)-IgG
Source text: A) U937/VCAM-1 Cell Adhesion Test
The test method used for the activity of the compounds of the formula I on the interaction between VCAM-1 and VLA-4 is the assay described below, which is specific for this interaction. The cellular binding components, that is the VLA-4 integrins, are supplied in their natural form as surface molecules on human U937 cells (ATCC CRL 1593), which belong to the leukocytes group. The specific binding components used are genetically engineered recombinant soluble fusion proteins, consisting of the extracytoplasmic domain of human VCAM-1 and the constant region of a human immunoglobulin of the subclass IgG1.
Assay for the Measurement of the Adhesion of U937 Cells (ATCC CRL 1593) to hVCAM-1 (1-3)-IgG
1. Preparation of Human VCAM-1(1-3)-IgG and Human CD4-IgG
A genetic construct for the expression of the extracellular domain of human VCAM-1, combined with the genetic sequence of the heavy chain of human immunoglobulin IgG1 (hinge, CH2 and CH3 regions) (from Brian Seed, Massachusetts General Hospital, Boston, USA; cf. Damle and Aruffo, Proc. Natl. Acad. Sci. USA 1991, 88, 6403), was employed. The soluble fusion protein hVCAM-1(1-3)-IgG contained the three aminoterminal extracellular immunoglobulin-like domains of human VCAM-1 (Damle and Aruffo, Proc. Natl. Acad. Sci. USA 1991, 88, 6403). CD4-IgG (Zettlmeissl et al., DNA and Cell Biology 1990, 9, 347) served as a fusion protein for negative controls. The recombinant proteins were expressed as soluble proteins after DEAE/dextran-mediated DNA transfection in COS cells (ATCC CRL1651) according to standard procedures (Ausubel et al., Current protocols in molecular biology, John Wiley & Sons, Inc., 1994).
2. Assay for the Measurement of the Adhesion of U937 Cells to hVCAM-1(1-3)-IgG
2.1 96-well microtiter test plates (Nunc Maxisorb) were incubated at room temperature for 1 hour with 100 μl/well of a goat-anti-human IgG antibody solution (10 μg/ml in 50 mM tris, pH 9.5). After removal of the antibody solution, washing was carried out once with PBS.
2.2 150 μl/well of a blocking buffer (1% BSA in PBS) were incubated on the plates at room temperature for 0.5 hour. After removal of the blocking buffer, washing was carried out once with PBS.
2.3 100 μl per well of a cell culture supernatant of transfected COS cells were incubated on the plates at room temperature for 1.5 hours. The COS cells were transfected with a plasmid which codes for the three N-terminal immunoglobulin-like domains of VCAM-1, coupled to the Fc portion of human IgG1 (hVCAM-1 (1-3)-IgG). The content of hVCAM-1(1-3)-IgG was about 0.5-1 μg/ml. After removing the culture supernatant, washing was carried out once with PBS.
2.4 The plates were incubated at room temperature for 20 minutes with 100 μl/well of Fc receptor blocking buffer (1 mg/ml of γ-globulin, 100 mM NaCl, 100 μM MgCl2, 100 μM MnCl2, 100 μM CaCl2, 1 mg/ml of BSA in 50 mM HEPES, pH 7.5). After removal of the Fc receptor blocking buffer, washing was carried out once with PBS.
2.5 20 μl of binding buffer (100 μM NaCl, 100 μM MgCl2, 100 μM MnCl2, 100 μM CaCl2, 1 mg/ml of BSA in 50 mM HEPES, pH 7.5) were initially introduced, and the substances to be tested were added in 10 μl of binding buffer and incubated for 20 minutes. The controls used were antibodies against VCAM-1(BBT, No. BBA6) and against VLA-4(Immunotech, No. 0764).
2.6 U937 cells were incubated in Fc receptor blocking buffer for 20 minutes and then pipetted in at a concentration of 1×10^6/ml and in an amount of 100 μl per well ([…]).
2.7 The plates were slowly immersed at an angle of 45° in stop buffer (100 mM NaCl, 100 μM MgCl2, 100 μM MnCl2, 100 μM CaCl2 in 25 mM Tris, pH 7.5) and shaken off. The process was repeated.
2.8 50 μl/well of a dye solution ([…] of Hoechst Dye 33258, 4% formaldehyde, 0.5% Triton X-100 in PBS) were then incubated on the plates for 15 minutes. […]

T1 sequence (P13612 34-1032): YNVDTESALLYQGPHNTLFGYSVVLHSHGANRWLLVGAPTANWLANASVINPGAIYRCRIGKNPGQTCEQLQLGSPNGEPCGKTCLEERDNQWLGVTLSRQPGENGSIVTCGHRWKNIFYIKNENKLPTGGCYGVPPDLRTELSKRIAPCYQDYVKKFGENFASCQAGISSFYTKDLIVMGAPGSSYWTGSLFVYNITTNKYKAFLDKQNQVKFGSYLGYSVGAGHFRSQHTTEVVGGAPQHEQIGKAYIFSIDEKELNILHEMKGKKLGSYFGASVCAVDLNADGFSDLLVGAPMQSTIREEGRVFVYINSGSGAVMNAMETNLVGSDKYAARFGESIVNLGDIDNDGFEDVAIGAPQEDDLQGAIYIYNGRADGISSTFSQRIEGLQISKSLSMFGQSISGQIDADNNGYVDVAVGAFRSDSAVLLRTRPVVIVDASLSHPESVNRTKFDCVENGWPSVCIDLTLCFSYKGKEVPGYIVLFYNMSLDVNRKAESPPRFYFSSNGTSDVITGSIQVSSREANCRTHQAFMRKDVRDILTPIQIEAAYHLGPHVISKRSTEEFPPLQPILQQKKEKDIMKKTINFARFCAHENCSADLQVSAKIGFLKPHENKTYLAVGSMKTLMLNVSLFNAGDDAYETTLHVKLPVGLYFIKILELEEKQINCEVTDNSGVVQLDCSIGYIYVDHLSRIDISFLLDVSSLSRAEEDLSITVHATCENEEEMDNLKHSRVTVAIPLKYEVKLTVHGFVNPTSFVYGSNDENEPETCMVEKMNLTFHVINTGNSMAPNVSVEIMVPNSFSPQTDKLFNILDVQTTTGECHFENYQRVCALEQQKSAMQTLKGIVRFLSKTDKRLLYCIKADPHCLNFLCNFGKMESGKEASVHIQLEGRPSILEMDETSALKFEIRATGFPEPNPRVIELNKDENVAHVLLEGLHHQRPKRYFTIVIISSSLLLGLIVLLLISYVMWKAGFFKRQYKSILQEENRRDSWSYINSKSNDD
T1 sequence (P05556 21-798): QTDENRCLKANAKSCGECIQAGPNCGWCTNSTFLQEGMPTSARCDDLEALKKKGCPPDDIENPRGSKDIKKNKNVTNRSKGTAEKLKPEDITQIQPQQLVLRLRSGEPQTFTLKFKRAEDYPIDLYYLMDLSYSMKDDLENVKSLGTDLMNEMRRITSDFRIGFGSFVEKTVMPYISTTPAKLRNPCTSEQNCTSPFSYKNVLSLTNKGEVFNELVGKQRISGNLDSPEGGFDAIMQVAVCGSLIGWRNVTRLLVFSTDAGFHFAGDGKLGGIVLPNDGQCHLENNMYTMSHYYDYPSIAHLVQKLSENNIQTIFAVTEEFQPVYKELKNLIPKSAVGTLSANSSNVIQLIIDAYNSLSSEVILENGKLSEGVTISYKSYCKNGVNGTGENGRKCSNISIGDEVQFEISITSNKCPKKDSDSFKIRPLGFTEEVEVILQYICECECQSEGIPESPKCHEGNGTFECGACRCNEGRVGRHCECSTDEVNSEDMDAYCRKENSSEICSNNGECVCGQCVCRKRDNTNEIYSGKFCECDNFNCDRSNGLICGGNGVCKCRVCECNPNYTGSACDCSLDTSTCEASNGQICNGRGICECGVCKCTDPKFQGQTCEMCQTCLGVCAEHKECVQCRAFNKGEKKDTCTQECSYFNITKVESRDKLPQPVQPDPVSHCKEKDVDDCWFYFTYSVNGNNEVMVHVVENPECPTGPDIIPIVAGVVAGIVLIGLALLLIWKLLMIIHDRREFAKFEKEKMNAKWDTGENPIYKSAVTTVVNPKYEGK

SMILES	IC50 [nM]
CC(C)C[C@@H](C(=O)N[C@@H](CC(=O)O)c1ccccc1)N1C(=O)N(Cc2ccc(NC(=O)Nc3ccccc3)cc2)C2(CCCCC2)C1=O [Example 1, (S)-3-((S)-2-(4,4-Pentamethylene-3-(4-(3-phenylureido)benzyl)-2,5-dioxoimidazolidin-1-yl)-2-(2-methylpropyl)acetylamino)-3-phenylpropionic acid]	3.2
CC(C)C[C@@H](C(=O)N[C@@H](CC(=O)O)c1ccccc1)N1C(=O)N(Cc2ccc(NC(=O)Nc3ccccc3)cc2)C2(CCCCC2)C1=O [Example 2, (S)-3-((S)-2-(4,4-Pentamethylene-3-(4-(3-phenylureido)benzyl)-2,5-dioxoimidazolidin-1-yl)-2-(2-methylpropyl)acetylamino)-3-phenylpropionic acid tromethamine salt]	4.5
CC(C)C[C@@H](C(=O)N[C@H](C)CC(=O)O)N1C(=O)N(Cc2ccc(NC(=O)Nc3ccccc3)cc2)C2(CCCCC2)C1=O [Example 3, (R)-3-((S)-2-(4,4-Pentamethylene-3-(4-(3-phenylureido)benzyl)-2,5-dioxoimidazolidin-1-yl)-2-(2-methylpropyl)acetylamino)-3-methylpropionic acid]	17
CC(C)C[C@H](CC(=O)O)NC(=O)[C@H](CC(C)C)N1C(=O)N(Cc2ccc(NC(=O)Nc3ccccc3)cc2)C2(CCCCC2)C1=O [Example 4, (R)-3-((S)-2-(4,4-Pentamethylene-3-(4-(3-phenylureido)benzyl)-2,5-dioxoimidazolidin-1-yl)-2-(2-methylpropyl)acetylamino)-3-(2-methylpropyl)propionic acid]	85.4
Cc1ccccc1NC(=O)Nc1ccc(CN2C(=O)N([C@@H](CC(C)C)C(=O)N[C@@H](CC(=O)O)c3ccccc3)C(=O)C23CCCCC3)cc1 [Example 8, (S)-3-((S)-2-(4,4-Pentamethylene-3-(4-(3-(2-methylphenyl)ureido)benzyl)-2,5-dioxoimidazolidin-1-yl)-2-(2-methylpropyl)acetylamino)-3-phenylpropionic acid]	3.2
Cc1ccccc1NC(=O)Nc1ccc(CN2C(=O)N([C@@H](CC(C)C)C(=O)N[C@H](C)CC(=O)O)C(=O)C23CCCCC3)cc1 [Example 9, (R)-3-((S)-2-(4,4-Pentamethylene-3-(4-(3-(2-methylphenyl)ureido)benzyl)-2,5-dioxoimidazolidin-1-yl)-2-(2-methylpropyl)acetylamino)-3-methylpropionic acid]	2.2
COc1ccc([C@H](CC(=O)O)NC(=O)[C@H](CC(C)C)N2C(=O)N(Cc3ccc(NC(=O)Nc4ccccc4)cc3)C3(CCCCC3)C2=O)cc1 [Example 16, (S)-3-((S)-2-(4,4-Pentamethylene-3-(4-(3-phenylureido)benzyl)-2,5-dioxoimidazolidin-1-yl)-2-(2-methylpropyl)acetylamino)-3-(4-methoxyphenyl)propionic acid]	4
COc1ccc([C@H](CC(=O)O)NC(=O)[C@H](CC(C)C)N2C(=O)N(Cc3ccc(NC(=O)Nc4ccccc4)cc3)C3(CCCCC3)C2=O)cc1 [Example 17, (S)-3-((S)-2-(4,4-Pentamethylene-3-(4-(3-phenylureido)benzyl)-2,5-dioxoimidazolidin-1-yl)-2-(2-methylpropyl)acetylamino)-3-(4-methoxyphenyl)propionic acid tromethamine salt]	1.9
COc1ccc([C@H](CC(=O)O)NC(=O)[C@H](CC(C)C)N2C(=O)N(Cc3ccc(NC(=O)Nc4ccccc4)cc3)C3(CCCCC3)C2=O)c(OC)c1 [Example 18, (S)-3-((S)-2-(4,4-Pentamethylene-3-(4-(3-phenylureido)benzyl)-2,5-dioxoimidazolidin-1-yl)-2-(2-methylpropyl)acetylamino)-3-(2,4-dimethoxyphenyl)propionic acid]	2.4
COc1ccc([C@H](CC(=O)O)NC(=O)[C@H](CC(C)C)N2C(=O)N(Cc3ccc(NC(=O)Nc4ccccc4)cc3)C3(CCCCC3)C2=O)c(OC)c1 [Example 19, (S)-3-((S)-2-(4,4-Pentamethylene-3-(4-(3-phenylureido)benzyl)-2,5-dioxoimidazolidin-1-yl)-2-(2-methylpropyl)acetylamino)-3-(2,4-dimethoxyphenyl)propionic acid tromethamine salt]	3
COc1ccc([C@H](CC(=O)O)NC(=O)[C@H](CC(C)C)N2C(=O)N(Cc3ccc(NC(=O)Nc4ccccc4)cc3)C3(CCCCC3)C2=O)cc1OC [Example 20, (S)-3-((S)-2-(4,4-Pentamethylene-3-(4-(3-phenylureido)benzyl)-2,5-dioxoimidazolidin-1-yl)-2-(2-methylpropyl)acetylamino)-3-(3,4-dimethoxyphenyl)propionic acid]	1.6
COc1ccc([C@H](CC(=O)O)NC(=O)[C@H](CC(C)C)N2C(=O)N(Cc3ccc(NC(=O)Nc4ccccc4)cc3)C3(CCCCC3)C2=O)cc1OC [Example 21, (S)-3-((S)-2-(4,4-Pentamethylene-3-(4-(3-phenylureido)benzyl)-2,5-dioxoimidazolidin-1-yl)-2-(2-methylpropyl)acetylamino)-3-(3,4-dimethoxyphenyl)propionic acid tromethamine salt]	3
COc1cccc([C@H](CC(=O)O)NC(=O)[C@H](CC(C)C)N2C(=O)N(Cc3ccc(NC(=O)Nc4ccccc4)cc3)C3(CCCCC3)C2=O)c1 [Example 22, (S)-3-((S)-2-(4,4-Pentamethylene-3-(4-(3-phenylureido)benzyl)-2,5-dioxoimidazolidin-1-yl)-2-(2-methylpropyl)acetylamino)-3-(3-methoxyphenyl)propionic acid]	6.7
Cc1ccccc1NC(=O)Nc1ccc(CN2C(=O)N([C@@H](CC(C)C)C(=O)N[C@@H](CC(=O)O)c3ccccc3)C(=O)C23CCCCC3)cc1 [Example 23, (S)-3-((S)-2-(4,4-Pentamethylene-3-(4-(3-(2-methylphenyl)ureido)benzyl)-2,5-dioxoimidazolidin-1-yl)-2-(2-methylpropyl)acetylamino)-3-phenylpropionic acid tromethamine salt]	5.5
Cc1ccccc1NC(=O)Nc1ccc(CN2C(=O)N([C@@H](CC(C)C)C(=O)N[C@H](C)CC(=O)O)C(=O)C23CCCCC3)cc1 [Example 24, (R)-3-((S)-2-(4,4-Pentamethylene-3-(4-(3-(2-methylphenyl)ureido)benzyl)-2,5-dioxoimidazolidin-1-yl)-2-(2-methylpropyl)acetylamino)-3-methylpropionic acid tromethamine salt]	1.7
COc1cccc([C@H](CC(=O)O)NC(=O)[C@H](CC(C)C)N2C(=O)N(Cc3ccc(NC(=O)Nc4ccccc4C)cc3)C3(CCCCC3)C2=O)c1 [Example 25, (S)-3-((S)-2-(4,4-Pentamethylene-3-(4-(3-(2-methylphenyl)ureido)benzyl)-2,5-dioxoimidazolidin-1-yl)-2-(2-methylpropyl)acetylamino)-3-(3-methoxyphenyl)propionic acid]	1.1
